Measured values: patent publication US20130123358A1, “Metabolic Benefits to Butyrate as a Chronic Diet Supplement” (priority 2009, published 2013)

Assays:
[1] = system: 3T3-L1 cells; test: Adipogenesis in 3T3-L1 cells (qRT-PCR, Oil red O); assay type: cell-based
Protocol: The epididymal fat pad was examined to test this effect of butyrate. The tissue was collected at 13 weeks on HFD (18 weeks in age) and used to make a tissue slide (FIG. 3A). After H&E staining, the slide was photographed under a microscope at magnification 20× (FIG. 3A). Gene expression was determined by qRT-PCR at day 8 after induction of cell differentiation of 3T3-L1 cells. Butyrate was used at 100 uM during induction of adipogenesis. Triglycerides in the 3T3-L1 mature adipocyte cells were quantified using Oil red 0 staining at the day 8 post-induction of differentiation (FIG. 3C). In addition, levels of mRNA for leptin, adiponectin, F4/80 (macrophage marker), TNF-α, and iNOS were determined in the epididymal fat and their relative levels are presented in bar figures (FIGS. 3D-3H). In FIGS. 3A-3H, data are represented as mean±SE (n=8). *P<0.05, **P<0.001.
To confirm the butyrate effect on adipocytes, 3T3-L1 cells were used to study butyrate activity in vitro. The cells were treated with butyrate during induction of adipogenesis, which was determined by expression of adipocyte-specific genes and triglyceride amount. […] However, expression of leptin was reduced by butyrate (FIG. 3B). The reduction may be a result of a decrease in triglyceride accumulation in the differentiated 3T3-L1 adipocytes (FIG. 3C). The triglyceride level was reduced 50% in the cells treated by butyrate.

[2] = system: class I and class II histone deacetylases (HDACs); conditions: cited from earlier work
[3] = system: islet cells; conditions: isolated rat islet cells; cited from earlier work
[4] = system: C57BL/6J mice on high fat diet; test: Hyperinsulinemic-euglycemic clamp; assay type: in vivo, mouse; conditions: 5% butyrate in HFD 4 weeks
Protocol: Hyperinsulinemic-euglycemic clamps were performed at the Penn State Mouse Metabolic Phenotyping Center. The clamps were conducted in C57BL/6 mice at 12 weeks of age after 4 weeks on HFD with or without butyrate supplement. Following overnight fast (˜15 hour), a 2-hour hyperinsulinemic-euglycemic clamp was conducted in awake mice with a primed (150 mU/kg body weight) and continuous infusion of human regular insulin (Humulin; Eli Lilly, Indianapolis, Ind.) at a rate of 2.5 mU/kg/min to raise plasma insulin within a physiological range (Kim et al., 2004). Blood samples (20 μl) were collected at 20 min intervals for the immediate measurement of plasma glucose concentration, and 20% glucose was infused at variable rates to maintain glucose at basal concentrations. Basal and insulin-stimulated whole body glucose turnover were estimated with a continuous infusion of [3-^3H]glucose (PerkinElmer, Boston, Mass.) for 2 hours prior to the clamps (0.05 μCi/min) and throughout the clamps (0.1 μCi/min), respectively. To estimate insulin-stimulated glucose uptake in individual tissues, 2-deoxy-D-[1-^14C]glucose (2-[^14C]DG) was administered as a bolus (10 μCi) at 75 min after the start of clamps. Blood samples were taken before, during, and at the end of clamps for the measurement of plasma [^3H]glucose, ^3H2O, 2-[^14C]DG concentrations, and/or insulin concentrations. At the end of the clamps, mice were euthanized, and tissues were taken for biochemical and molecular analysis.
Glucose concentrations during clamps were analyzed using […] plasma by a glucose oxidase method on a Beckman Glucose Analyzer 2 (Beckman, Fullerton, Calif.). Plasma insulin concentrations were measured by ELISA using kits from Alpco Diagnostics (Salem, N.H.). Plasma concentrations of [3-^3H]glucose, 2-[^14C]DG, and ^3H2O were determined following deproteinization of plasma samples as previously described. The radioactivity of ^3H in tissue glycogen was determined by digesting tissue samples in KOH and precipitating glycogen with ethanol. For the determination of tissue 2-[^14C]DG-6-P content, tissue samples were homogenized, and the supernatants were subjected to an ion-exchange column to separate 2-[^14C]DG-6-P from 2-[^14C]DG. Rates of basal hepatic glucose production (HGP) and insulin-stimulated whole body glucose turnover were determined as the ratio of the [^3H]glucose infusion rate to the specific activity of plasma glucose at the end of the basal period and during the final 30 min of clamp, respectively (Kim et al., 2004). Insulin-stimulated rate of HGP during clamp was determined by subtracting the glucose infusion rate from whole body glucose turnover. Insulin-stimulated glucose uptake in individual tissues was assessed by determining the tissue content of 2-[^14C]DG-6-P and plasma 2-[^14C]DG profile.
Hyperinsulinemic-euglycemic clamps were performed at the Penn State Mouse Metabolic Phenotyping Center. The clamps were conducted in C57BL/6J mice at 12 weeks of age after 4 weeks on HFD with or without a 5% butyrate supplement. Following overnight fast (˜15 hour), a 2-hour hyperinsulinemic-euglycemic clamp was conducted in awake mice with a primed (150 mU/kg body weight) and continuous infusion of human regular insulin (Humulin; Eli Lilly, Indianapolis, Ind.) at a rate of 2.5 mU/kg/min to raise plasma insulin within a physiological range (38). […]

[5] = butyrate 100 uM during induction of adipogenesis, qRT-PCR day 8

CCCC(=O)[O-].[Na+] [sodium butyrate]
adipocyte-specific markers (PPARδ, aP2, SREBP, and adiponectin) [1, 5]: not reduced | expression of leptin [1, 5]: reduced | triglyceride level, reduction ([1]; butyrate 100 uM, Oil red O, day 8 post-induction): 50% | effect on class I and class II HDACs [2]: inhibition | cell viability (islet cells) [3]: decrease | insulin release in the presence of glucose (islet cells) [3]: decrease | insulin sensitivity in the liver (hepatic glucose production) ([4]; clamp): also improved | insulin-stimulated glucose uptake in brown adipose tissue ([4]; clamp): improved | insulin-stimulated glucose uptake in white adipose tissue ([4]; clamp): improved | insulin-stimulated glucose uptake in muscle ([4]; clamp, gastrocnemius): improved | glucose infusion rate, increase ([4]; last 40 min of clamps): 40%
